Measured values reported in publication PMC4460250, “Systems Pharmacology Dissecting Holistic Medicine for Treatment of Complex Diseases: An Example Using Cardiocerebrovascular Diseases Treated by TCM” (Evidence-based Complementary and Alternative Medicine : eCAM, 2015).

What was measured:
[1] = in vivo
[2] = in vivo; cited from earlier work

SMILES | Class(High: HIA value ≥0.7; Low: HIA value < 0.7) [1] | HIA(Human Intestinal Absorption) [2]
CN1C(=O)[C@H](O)N=C(c2ccccc2Cl)c2cc(Cl)ccc21 [Lormetazepam(S)] | High (key: High: HIA value ≥0.7; Low: HIA value < 0.7) | 1
CCN(CCCCOC(=O)c1ccc(OC)c(OC)c1)[C@H](C)Cc1ccc(OC)cc1 [Mebeverine(R)] | High (key: High: HIA value ≥0.7; Low: HIA value < 0.7) | 0.9
CCN(CCCCOC(=O)c1ccc(OC)c(OC)c1)[C@@H](C)Cc1ccc(OC)cc1 [Mebeverine(S)] | High (key: High: HIA value ≥0.7; Low: HIA value < 0.7) | 0.9
CCOC(=O)C1(c2ccccc2)CCN(C)CC1 [Meperidine] | High (key: High: HIA value ≥0.7; Low: HIA value < 0.7) | 1
CC[C@]1(c2cccc(O)c2)CCCCN(C)C1 [Meptazinol(R)] | High (key: High: HIA value ≥0.7; Low: HIA value < 0.7) | 1
CC[C@@]1(c2cccc(O)c2)CCCCN(C)C1 [Meptazinol(S)] | High (key: High: HIA value ≥0.7; Low: HIA value < 0.7) | 1
CC(C)NC[C@H](O)c1cc(O)cc(O)c1 [Metaproterenol(R)] | Low (key: High: HIA value ≥0.7; Low: HIA value < 0.7) | 0.43
CC(C)NC[C@@H](O)c1cc(O)cc(O)c1 [Metaproterenol(S)] | Low (key: High: HIA value ≥0.7; Low: HIA value < 0.7) | 0.43
COc1ccccc1OC[C@@H](O)COC(N)=O [Methocarbamol(R)] | High (key: High: HIA value ≥0.7; Low: HIA value < 0.7) | 1
COc1ccccc1OC[C@H](O)COC(N)=O [Methocarbamol(S)] | High (key: High: HIA value ≥0.7; Low: HIA value < 0.7) | 1
CN(Cc1cnc2nc(N)nc(N)c2n1)c1ccc(C(=O)N[C@@H](CCC(=O)O)C(=O)O)cc1 [Methotrexate(S)] | High (key: High: HIA value ≥0.7; Low: HIA value < 0.7) | 1
COc1ccc(C[C@@H](C)N)cc1 [Methoxyamphetamine(R)] | High (key: High: HIA value ≥0.7; Low: HIA value < 0.7) | 0.8
CN1C(=O)C[C@](C)(c2ccccc2)C1=O [Methsuximide(R)] | High (key: High: HIA value ≥0.7; Low: HIA value < 0.7) | 1
CN1C(=O)C[C@@](C)(c2ccccc2)C1=O [Methsuximide(S)] | High (key: High: HIA value ≥0.7; Low: HIA value < 0.7) | 1
COC(=O)C(c1ccccc1)C1CCCCN1 (stereo not shown) [Methylphenidate] | High (key: High: HIA value ≥0.7; Low: HIA value < 0.7) | 0.8
CC[C@@H](CO)NC(=O)[C@@H]1C=C2c3cccc4c3c(cn4C)C[C@H]2N(C)C1 [Methysergide] | High (key: High: HIA value ≥0.7; Low: HIA value < 0.7) | 1
Cc1ccccc1N1C(=O)c2cc(S(N)(=O)=O)c(Cl)cc2N[C@H]1C [Metolazone(R)] | Low (key: High: HIA value ≥0.7; Low: HIA value < 0.7) | 0.64
